The subject of this test is Her2 protein levels in BT474 breast cancer cells. Briefly: Her2 degradation in BT474 breast cancer cells (immunocytochemistry, ArrayScan vTi), marker for Hsp90 inhibition. The test is classed as cell-based. The conditions noted are these: Homo sapiens, BT-474, 8 h treatment, concentration at which cellular Her2 signal is diminished by 50% vs untreated controls. How it is done: The potency of the compounds of formula (I) were evaluated by measuring the Her2 degradation as a marker for Hsp90 inhibition.
Hsp90 is a key component of a chaperone machinery that catalyzes the folding and quality control of several proteins. Its inhibition impairs the capacity to fold or stabilize its client proteins, leading to the proteosomal dependent degradation of these unfolded proteins. At the moment there is an increasing number (>100) of reported Hsp90 clients, but one of the most frequently way to detect Hsp90 chaperone inhibition is the detection of Her2 protein levels after short time treatment (usually 8-24 h), in order to be sure about the specificity of this effect.
Cellular activity of Hsp90 inhibitors was assessed by measuring the induced loss of Her2 protein levels in BT474 breast cancer cells (ATCC #HTB-20). Cellular Her2 levels were measured by immunocytochemistry, and quantified using an ArrayScan vTi instrument (Cellomics Thermo Scientific).
Studies were performed as follows: 5000 cells/well are seeded in 96 well plates (Perkin Elmer) in DMEM/5% FCS and incubated for 48 h at 37° C., under 5% CO2.
Medium is then replaced with fresh medium containing test compounds at the required concentration. Concentration curves are prepared in DMEM/10% FCS from compound stocks in DMSO, and final DMSO concentration is 0.1% (v/v). Duplicate wells for each concentration point are prepared, with a typical highest compound concentration of 30 μM. After addition of compound, plates are returned to the incubator for 8 h, then fixed by replacing medium with PBS containing 3.7% paraformaldehyde solution. Plates are incubated for 20 minutes at room temperature, then wells are washed in PBS and cells permiabilised by incubating with PBS containing 0, 3% Triton X-100 for 15 minutes at room temperature. Non-specific binding sites are blocked by incubating wells for 1 h in PBS containing 3% (w/v) BSA. Wells are then incubated for 1 h at room temperature in PBS containing anti Her2 mouse monoclonal (Anti-c-ErbB2/c-Neu, Mouse mAb 3B5, Calbiochem Cat No OP15) diluted 1:100 in 1% (w/v) BSA. After 3 washes in PBS, wells are incubated in PBS (w/v) 1% BSA containing a 2 μg/ml of Cy2-conjugated Goat anti mouse secondary antibody (Amersham Pharmacia Biothech cat. No PA 42002) (Absorption maximum 489 nm fluorescence maximum 506 nm) and 1 μg/ml of DAPI (Absorption maximum 359 nm fluorescence maximum 461 nm) (4′,6-Diamidino-2-phenylindole, dilactate) (Sigma cat. No D 9564) a high sensitivity dye to detect nucleid acid for nuclear staining. After washing a further 3 times in PBS, cellular Her2 immunoreactivity is assessed using the ArrayScan vTi instrument, with a Zeiss 10×0.5 N.A. objective, and applying the Cytotoxity.V3 algorithm (Cellomics/Thermo Fisher) with a XF100 filter. At least 10 fields, corresponding to at least 900 cells, are read for each well. IC50 values represent the compound concentration at which cellular Her2 signal is diminished by 50% compared with untreated controls.
The following formula is used: IC50=Bottom+(Top−Bottom)/(1+10^((Log EC50−X)));
X is the logarithm of concentration. IC50 is the response; IC50 starts at Bottom and goes to Top with a sigmoid shape. The compounds of formula (I) tested as described above, result to induce the degradation of Her2 protein.
For orientation: IC50 means the concentration at which inhibition is half-maximal. On to `O=C(C1CCC2(CC1)OCCO2)N1CCc2n[nH]c(-c3cc(Cl)c(O)cc3O)c2C1` [compound 14, [3-(5-chloro-2,4-dihydroxyphenyl)-1,4,6,7-tetrahydro-5H-pyrazolo[4,3-c]pyridin-5-yl](1,4-dioxaspiro[4.5]dec-8-yl)methanone], for which 1.1 µM corresponded to half-maximal inhibition (IC50).
Then `O=C(c1ccc(-n2ccnc2)cc1)N1CCc2[nH]nc(-c3cc(Cl)c(O)cc3O)c2C1` [compound 16, [3-(5-chloro-2,4-dihydroxyphenyl)-1,4,6,7-tetrahydro-5H-pyrazolo[4,3-c]pyridin-5-yl][4-(1H-imidazol-1-yl)phenyl]methanone], with 8.3 µM; and `CO[C@H]1CC[C@H](C(=O)N2CCc3[nH]nc(-c4cc(Cl)c(O)cc4O)c3C2)CC1` [compound 17, [3-(5-chloro-2,4-dihydroxyphenyl)-1,4,6,7-tetrahydro-5H-pyrazolo[4,3-c]pyridin-5-yl](trans-4-methoxycyclohexyl)methanone], with 3 µM.
For `COc1ccc(CN2CCc3[nH]nc(-c4cc(Cl)c(O)cc4O)c3C2)cc1OC` [compound 40, 4-chloro-6-[5-(3,4-dimethoxybenzyl)-4,5,6,7-tetrahydro-1H-pyrazolo[4,3-c]pyridin-3-yl]benzene-1,3-diol] the value was 4 µM.
Then `Oc1cc(O)c(-c2n[nH]c3c2CN(Cc2ccc(-n4ccnn4)cc2)CC3)cc1Cl` [compound 49, 4-chloro-6-{5-[4-(1H-1,2,3-triazol-1-yl)benzyl]-4,5,6,7-tetrahydro-1H-pyrazolo[4,3-c]pyridin-3-yl}benzene-1,3-diol], with 3.4 µM; and `Oc1cc(O)c(-c2onc3c2CN(Cc2ccc(-n4ccnc4)cc2)CC3)cc1Cl` [compound 67, 4-chloro-6-{5-[4-(1H-imidazol-1-yl)benzyl]-4,5,6,7-tetrahydroisoxazolo[4,3-c]pyridin-3-yl}benzene-1,3-diol], with 8.7 µM.

The values above are taken from US8309578B2, “Bicyclic pyrazole and isoxazole derivatives as antitumor and antineurodegenerative agents” (Nerviano Medical Sciences S.r.l., priority 2008, dated 2012).
